Measurements taken from ChEMBL document CHEMBL1145660, “Antimicrobial Neolignans of Sassafras randaiense Roots” (1983).
≈ marks a conversion by molar mass, not a printed value.

How the values were obtained:
Type in all cases: functional
[1] = test system: Mycolicibacterium smegmatis; assay: Antimicrobial activity against Mycobacterium smegmatis ATCC 607
[2] = test system: Trichophyton mentagrophytes; assay: Antimicrobial activity against Trichophyton mentagrophytes ATCC 9972
Staphylococcus aureus = assay: Antimicrobial activity against Staphylococcus aureus ATCC 6538
Saccharomyces cerevisiae = assay: Antimicrobial activity against Saccharomyces cerevisiae ATCC 9763

`C=CCc1ccc(Oc2cc(CC=C)ccc2O)cc1` [ISOMAGNOLOL] showed an MIC [1] of 1.56 µg/mL (≈ 5.86 µM), an MIC [2] of 1.56 µg/mL (≈ 5.86 µM) and an MIC (Staphylococcus aureus) of 3.12 µg/mL (≈ 11.7 µM). It also gave an MIC (Saccharomyces cerevisiae) of 25 µg/mL (≈ 93.9 µM).
